Laboratory results as given in ChEMBL document CHEMBL3804819, “2-(Quinolin-4-yloxy)acetamides Are Active against Drug-Susceptible and Drug-Resistant Mycobacterium tuberculosis Strains” (ACS Med Chem Lett, 2016).
In brackets after ≈: the same amount, converted by molar mass.

Assays:
Assay type in all cases: functional
[1] = test system: Mycobacterium tuberculosis; experiment: Antibacterial activity against isoniazid-resistant Mycobacterium tuberculosis RS-032 clinical isolate harboring katG S315T mutant assessed as reduction in bacterial growth after 7 days by resazurin assay
[2] = test system: Mycobacterium tuberculosis; experiment: Antibacterial activity against multidrug-resistant Mycobacterium tuberculosis PE-003 clinical isolate harboring inhA C(-15)T mutant assessed as reduction in bacterial growth after 7 days by resazurin assay
[3] = test system: Mycobacterium tuberculosis; experiment: Antibacterial activity against isoniazid-resistant Mycobacterium tuberculosis RS-036 clinical isolate harboring inhA C(-15)T mutant assessed as reduction in bacterial growth after 7 days by resazurin assay
[4] = test system: Mycobacterium tuberculosis; experiment: Selectivity ratio of MIC for isoniazid-resistant Mycobacterium tuberculosis RS-032 clinical isolate harboring katG S315T mutant to MIC for Mycobacterium tuberculosis H37Rv

Row | Structure (SMILES) | MIC [1] [µM] | MIC [2] [µM] | MIC [3] [µM] | Selectivity ratio [4]
1 | COc1ccc2nc(C)cc(OCC(=O)Nc3ccccc3OC)c2c1 | 0.88 (≈ 0.31 µg/mL) | 0.06 (≈ 0.0211 µg/mL) | 0.44 (≈ 0.155 µg/mL) | 2
2 | COc1ccc2nc(C)cc(OCC(=O)NCc3ccccc3)c2c1 | 3.71 (≈ 1.25 µg/mL) | 0.46 (≈ 0.155 µg/mL) | 1.85 (≈ 0.622 µg/mL) | 2
3 | COc1ccc2nc(C)cc(OCC(=O)Nc3ccc4c(c3)OCO4)c2c1 | 3.41 (≈ 1.25 µg/mL) | 0.21 (≈ 0.0769 µg/mL) | 0.85 (≈ 0.311 µg/mL) | 2
4 | COc1ccc2nc(C)cc(OCC(=O)Nc3ccc4ccccc4c3)c2c1 | 0.84 (≈ 0.313 µg/mL) | 0.05 (≈ 0.0186 µg/mL) | 0.1 (≈ 0.0372 µg/mL) | 2
5 | COc1ccc2nc(C)cc(OCC(=O)Nc3ccc(C(F)(F)F)cc3)c2c1 | 1.6 (≈ 0.625 µg/mL) | 0.1 (≈ 0.039 µg/mL) | 0.8 (≈ 0.312 µg/mL) | 
6 | COc1ccc2nc(C)cc(OCC(=O)Nc3ccccc3)c2c1 | 1.93 (≈ 0.622 µg/mL) | 0.24 (≈ 0.0774 µg/mL) | 0.48 (≈ 0.155 µg/mL) | 2
7 | COc1ccc2nc(C)cc(OCC(=O)Nc3ccccc3C)c2c1 | 0.93 (≈ 0.313 µg/mL) | 0.11 (≈ 0.037 µg/mL) | 0.46 (≈ 0.155 µg/mL) | 2
8 | COc1ccc2nc(C)cc(OCC(=O)Nc3ccc(Cl)cc3)c2c1 | 0.87 (≈ 0.31 µg/mL) | 0.06 (≈ 0.0214 µg/mL) | 0.44 (≈ 0.157 µg/mL) | 2
9 | COc1ccc2nc(C)cc(OCC(=O)Nc3ccc(Br)cc3)c2c1 | 0.78 (≈ 0.313 µg/mL) | 0.05 (≈ 0.0201 µg/mL) | 0.39 (≈ 0.156 µg/mL) | 2
10 | COc1cccc(NC(=O)COc2cc(C)nc3ccc(OC)cc23)c1 | 7.08 (≈ 2.49 µg/mL) | 0.44 (≈ 0.155 µg/mL) | 1.77 (≈ 0.624 µg/mL) | 2
11 | COc1ccc2nc(C)cc(OCC(=O)Nc3ccccc3Cl)c2c1 | 1.75 (≈ 0.624 µg/mL) | 0.11 (≈ 0.0392 µg/mL) | 0.44 (≈ 0.157 µg/mL) | 
12 | COc1ccc(NC(=O)COc2cc(C)nc3ccc(OC)cc23)cc1 | 0.88 (≈ 0.31 µg/mL) | 0.06 (≈ 0.0211 µg/mL) | 0.44 (≈ 0.155 µg/mL) | 2
13 | COc1ccc2nc(C)cc(OCC(=O)Nc3cccc(Cl)c3)c2c1 | 3.5 (≈ 1.25 µg/mL) | 0.22 (≈ 0.0785 µg/mL) | 0.87 (≈ 0.31 µg/mL) | 
14 | COc1ccc(NC(=O)COc2cc(C)nc3ccc(OC)cc23)c(OC)c1 | 0.81 (≈ 0.31 µg/mL) | 0.2 (≈ 0.0765 µg/mL) | 0.41 (≈ 0.157 µg/mL) | 2
15 | NNC(=O)c1ccncc1 [ISONIAZID] | >70 | >70 | >70 | 
